In article PMC12209991 (Clinical Pharmacology in Drug Development, 2025):
Where two headings read alike, the source gives them in different places.

What was measured:
[1] = Single ascending dose (SAD) pharmacokinetics in healthy volunteers; format: in vivo, human; settings: human, plasma, po, plasma
Protocol: (§1) Analytes were separated by HPLC on a Waters Atlantis T3 analytical column using a gradient mobile phase (mobile phase A: 10% acetonitrile, 90% water, 10 mM ammonium acetate, 0.3% formic acid; mobile phase B: 90% acetonitrile, 10% water, 10 mM ammonium acetate, 0.3% formic acid) run at 0.4 mL/min with initial mobile phase B concentration of 30%.

CYP3A4 = CYP3A4 (Homo sapiens, UniProt P08684); experiment: In vitro metabolism; format: in vitro ADME; settings: unpublished data
Chain of CYP3A4 (P08684 whole entry): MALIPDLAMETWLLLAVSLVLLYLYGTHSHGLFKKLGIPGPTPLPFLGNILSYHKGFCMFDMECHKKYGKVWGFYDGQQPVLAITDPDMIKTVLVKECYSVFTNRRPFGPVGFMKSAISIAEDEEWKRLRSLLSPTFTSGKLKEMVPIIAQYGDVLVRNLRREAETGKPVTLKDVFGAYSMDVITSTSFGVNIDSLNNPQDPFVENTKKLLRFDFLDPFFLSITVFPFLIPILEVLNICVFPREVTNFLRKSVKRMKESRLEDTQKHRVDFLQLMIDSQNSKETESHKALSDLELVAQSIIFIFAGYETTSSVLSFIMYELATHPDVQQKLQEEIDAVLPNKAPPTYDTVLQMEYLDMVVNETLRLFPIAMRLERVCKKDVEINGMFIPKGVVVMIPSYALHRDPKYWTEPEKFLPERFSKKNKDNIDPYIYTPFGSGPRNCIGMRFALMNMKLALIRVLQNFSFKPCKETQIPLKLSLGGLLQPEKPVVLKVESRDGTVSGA

[2] = Multiple ascending dose (MAD) pharmacokinetics in healthy volunteers, BID for 14 days; format: in vivo, human; settings: for AUC / Cmax / Tmax / half-life: human, plasma, oral; for Tmax: read-out: Tmax, median [min-max]
Protocol: as §1

AUC(0-inf) ([1]; 150 mg, single oral dose 150 mg, read-out: AUCinf, mean (SD)): 5050 ng·h/mL | Cmax ([1]; 150 mg, single oral dose 150 mg, read-out: Cmax, geometric mean (Geo CV%)): 653 ng/mL | Cmax ([1]; 150 mg, single oral dose 150 mg, read-out: Cmax, mean (SD)): 668 ng/mL | Tmax ([1]; 150 mg, single oral dose 150 mg, read-out: Tmax, median [min-max]): 2 h | AUC(0-inf) ([1]; 300 mg, single oral dose 300 mg, read-out: AUCinf, geometric mean (Geo CV%)): 6230 ng·h/mL | AUC(0-inf) ([1]; 300 mg, single oral dose 300 mg, read-out: AUCinf, mean (SD)): 6440 ng·h/mL | Cmax ([1]; 300 mg, single oral dose 300 mg, read-out: Cmax, geometric mean (Geo CV%)): 747 ng/mL | Cmax ([1]; 300 mg, single oral dose 300 mg, read-out: Cmax, mean (SD)): 771 ng/mL | Tmax ([1]; 300 mg, single oral dose 300 mg, read-out: Tmax, median [min-max]): 2 h | AUC(0-inf) ([1]; 600 mg, single oral dose 600 mg, read-out: AUCinf, geometric mean (Geo CV%)): 11700 ng·h/mL | AUC(0-inf) ([1]; 600 mg, single oral dose 600 mg, read-out: AUCinf, mean (SD)): 11900 ng·h/mL | Cmax ([1]; 600 mg, single oral dose 600 mg, read-out: Cmax, geometric mean (Geo CV%)): 1200 ng/mL | Cmax ([1]; 600 mg, single oral dose 600 mg, read-out: Cmax, mean (SD)): 1240 ng/mL | Tmax ([1]; 600 mg, single oral dose 600 mg, read-out: Tmax, median [min-max]): 1.75 h | AUC(0-inf) ([1]; 1000 mg, single oral dose 1000 mg, read-out: AUCinf, geometric mean (Geo CV%)): 16500 ng·h/mL | AUC(0-inf) ([1]; 1000 mg, single oral dose 1000 mg, read-out: AUCinf, mean (SD)): 17700 ng·h/mL | Cmax ([1]; 1000 mg, single oral dose 1000 mg, read-out: Cmax, geometric mean (Geo CV%)): 1460 ng/mL | Cmax ([1]; 1000 mg, single oral dose 1000 mg, read-out: Cmax, mean (SD)): 1500 ng/mL | Tmax ([1]; 1000 mg, single oral dose 1000 mg, read-out: Tmax, median [min-max]): 2.02 h | Tmax ([1]; SAD, oral, across doses 25-1000 mg, read-out: Tmax (time of peak concentrations)): 2 h | time to steady-state ([2]; BID dosing): ≤ 3 days | AUC ([2]; 150 mg, 150 mg BID, Day 1, plasma, read-out: AUC12, geometric mean (Geo CV%)): 3470 ng·h/mL | AUC ([2]; 150 mg, 150 mg BID, Day 1, plasma, read-out: AUC12, mean (SD)): 3610 ng·h/mL | Cmax ([2]; 150 mg, 150 mg BID, Day 1, plasma, read-out: Cmax, geometric mean (Geo CV%)): 597 ng/mL | Cmax ([2]; 150 mg, 150 mg BID, Day 1, plasma, read-out: Cmax, mean (SD)): 623 ng/mL | Tmax ([2]; 150 mg, 150 mg BID, Day 1, plasma): 2.5 h | half-life ([2]; 150 mg, 150 mg BID, Day 1, plasma, read-out: t1/2, geometric mean (Geo CV%) (converted)): 4.13 h | half-life ([2]; 150 mg, 150 mg BID, Day 1, plasma, read-out: t1/2, mean (SD) (converted)): 4.52 h | AUC ([2]; 150 mg, 150 mg BID, Day 14, plasma, read-out: AUC12, geometric mean (Geo CV%)): 5570 ng·h/mL | AUC ([2]; 150 mg, 150 mg BID, Day 14, plasma, read-out: AUC12, mean (SD)): 5660 ng·h/mL | Cmax ([2]; 150 mg, 150 mg BID, Day 14, plasma, read-out: Cmax, geometric mean (Geo CV%)): 846 ng/mL | Cmax ([2]; 150 mg, 150 mg BID, Day 14, plasma, read-out: Cmax, mean (SD)): 861 ng/mL | Tmax ([2]; 150 mg, 150 mg BID, Day 14, plasma): 2.5 h | AUC ([2]; 300 mg, 300 mg BID, Day 1, plasma, read-out: AUC12, geometric mean (Geo CV%)): 5540 ng·h/mL | AUC ([2]; 300 mg, 300 mg BID, Day 1, plasma, read-out: AUC12, mean (SD)): 5590 ng·h/mL | Cmax ([2]; 300 mg, 300 mg BID, Day 1, plasma, read-out: Cmax, geometric mean (Geo CV%)): 907 ng/mL | Cmax ([2]; 300 mg, 300 mg BID, Day 1, plasma, read-out: Cmax, mean (SD)): 925 ng/mL | Tmax ([2]; 300 mg, 300 mg BID, Day 1, plasma): 2.5 h | half-life ([2]; 300 mg, 300 mg BID, Day 1, plasma, read-out: t1/2, geometric mean (Geo CV%) (converted)): 4.15 h | half-life ([2]; 300 mg, 300 mg BID, Day 1, plasma, read-out: t1/2, mean (SD) (converted)): 4.19 h | AUC ([2]; 300 mg, 300 mg BID, Day 14, plasma, read-out: AUC12, geometric mean (Geo CV%)): 9550 ng·h/mL | AUC ([2]; 300 mg, 300 mg BID, Day 14, plasma, read-out: AUC12, mean (SD)): 9860 ng·h/mL | Cmax ([2]; 300 mg, 300 mg BID, Day 14, plasma, read-out: Cmax, geometric mean (Geo CV%)): 1420 ng/mL | Cmax ([2]; 300 mg, 300 mg BID, Day 14, plasma, read-out: Cmax, mean (SD)): 1470 ng/mL | Tmax ([2]; 300 mg, 300 mg BID, Day 14, plasma): 2 h | AUC ([2]; 500 mg, 500 mg BID, Day 1, plasma, read-out: AUC12, geometric mean (Geo CV%)): 8040 ng·h/mL | AUC ([2]; 500 mg, 500 mg BID, Day 1, plasma, read-out: AUC12, mean (SD)): 8340 ng·h/mL | Cmax ([2]; 500 mg, 500 mg BID, Day 1, plasma, read-out: Cmax, geometric mean (Geo CV%)): 1270 ng/mL | Cmax ([2]; 500 mg, 500 mg BID, Day 1, plasma, read-out: Cmax, mean (SD)): 1320 ng/mL | Tmax ([2]; 500 mg, 500 mg BID, Day 1, plasma): 2.52 h | half-life ([2]; 500 mg, 500 mg BID, Day 1, plasma, read-out: t1/2, geometric mean (Geo CV%) (converted)): 4.38 h | half-life ([2]; 500 mg, 500 mg BID, Day 1, plasma, read-out: t1/2, mean (SD) (converted)): 4.39 h | AUC ([2]; 500 mg, 500 mg BID, Day 14, plasma, read-out: AUC12, geometric mean (Geo CV%)): 12400 ng·h/mL | AUC ([2]; 500 mg, 500 mg BID, Day 14, plasma, read-out: AUC12, mean (SD)): 12600 ng·h/mL | Cmax ([2]; 500 mg, 500 mg BID, Day 14, plasma, read-out: Cmax, geometric mean (Geo CV%)): 1830 ng/mL | Cmax ([2]; 500 mg, 500 mg BID, Day 14, plasma, read-out: Cmax, mean (SD)): 1880 ng/mL | Tmax ([2]; 500 mg, 500 mg BID, Day 14, plasma): 1.5 h
Compound: CC(=O)N1CCC(COc2cc(F)c3c(=O)[nH]c(CSC4CCOCC4)nc3c2)CC1 [RBN‐3143]
metabolizing enzyme (CYP3A4): predominantly metabolized by cytochrome P4503A4 (CYP3A4)
